From patent US10537608B2, “Adiponectin peptidomimetics for treating ocular disorders” (Allysta Pharmaceuticals, Inc., priority 2015, dated 2020)
Primed or numbered codes have the meaning given here. Where no end group is shown, it is not given here. [ ]: non-standard residue; d: D form. Dab′ = 2,3-diamino butyric acid; Nva = CCC[C@H](N)C(=O)O

How the values were obtained:
Type in all cases: in vivo, C57BL/6 mice
[1] = system: Experimental dry eye (EDE) mice; experiment: Tear volume by phenol red thread tear test in experimental dry eye mice (Example 3); settings: 0.01% in BSS; for tear production, as measured by tear volume, compared to untreated or BSS treated EDE mice: topical 2 μl/eye 3 times a day, day 5 and day 10, p-value<0.05 vs. EDE; for difference in tear volume among those treated with ADP355, ADP399 and globular adiponectin: topical, EDE mice
Description: (§1) Experimental dry eye (EDE) was induced in 8-week old female C57BL/6 mice by subcutaneous injection of 0.5 mg/0.2 mL scopolamine hydrobromide (Sigma-Aldrich, St. Louis, Mo.) three times a day (9 AM, 1:30 PM and 6 PM). A dose of 0.3 mL scopolamine hydrobromide was administered at each injection. The mice were also exposed to an air draft and 30% ambient humidity. 6 experimental groups used in this study included: (1) untreated control mice (UT; no dry eye treatment and no topical treatment); (2) untreated EDE control mice (EDE; received no topical administration); (3) EDE control mice received a balanced salt solution (BSS); (4) EDE mice received 0.01% single chain adiponectin peptidomimetic (ADP355) in BSS; (5) EDE mice receiving 0.01% peptide dimer adiponectin peptidomimetic (ADP399) in BSS; and (6) EDE mice receiving 0.01% recombinant globular adiponectin (gAdipo) in BSS. Each group included 5 mice. EDE mice treated with BSS received topical bilateral administration of 2 μï/eye, 3 times a day. EDE mice treated with ADP355 received topical bilateral administration of 2 μï/eye, 3 times a day. EDE mice treated with ADP-399 received topical bilateral administration of 2 μï/eye, 3 times a day. The gAdipo treated mice served as a positive treatment control. Mice were evaluated at baseline, day 5 and day 10 after the treatment initiation. In some experiments, ADP355, ADP-399 and gAdipo were resuspended in 0.01% BSA.
Tear volume was measured using a phenol red thread tear test. Briefly, a cotton thread treated with phenol red at its tip (Zone-Quick; Oasis, Glendora, Calif.) was held with jeweler's forceps and placed in the tear meniscus of the lateral canthus for 20 sees to contact tear fluid. Using a microscope, the length of the red portion (wet portion) of the thread was measured in millimeters. A standard curve was derived to convert the distance measurement into tear volume.

[2] = system: Experimental dry eye (EDE) mice; experiment: Corneal fluorescein staining in experimental dry eye mice (Example 3); settings: 0.01% in BSS; for corneal staining (corneal irregularity) compared to untreated EDE mice: topical 3 times a day, score 0-4, day 5 and day 10, p-value<0.05 vs. EDE; for corneal surfaces compared to untreated normal mice (UT) and positive control gAdipo-treated mice: topical, EDE mice
Description: as §1
The severity of corneal epithelial damage was evaluated by corneal fluorescein staining. Briefly, 1% fluorescein dye (1 μï) was instilled into the eye and then the eye was washed with saline. 10 minutes after application of the dye, the eye was photographed with a slip lamp microscope using a cobalt blue light. The stained area was graded using a scoring system by two blinded observers. […] The average score from the five regions was recorded. […] In addition, the adiponectin peptidomimetic-treated mice (ADP355 and ADP-399) had corneal surfaces that were similar to those of untreated normal mice (UT) and positive control globular adiponectin-treated mice (gAdipo). The corneal surface scores in all groups at day 10 were similar to those at day 5 after treatment initiation.

[3] = system: Experimental dry eye (EDE) mice; experiment: Corneal fluorescein staining in experimental dry eye mice (Example 4); settings: single treatment, topical; D5 and D10
Description: Experimental dry eye (EDE) was induced in 8-week old female C57BL/6 mice by subcutaneous injection of 0.5 mg/0.2 mL scopolamine hydrobromide (Sigma-Aldrich, St. Louis, Mo.) three times a day (9 AM 0.3 mL, 1:30 PM 0.3 mL, and 6:00 PM 0.3 mL). The mice were also exposed to an air draft and 30% ambient humidity. Five experimental groups used in this study included: (1) untreated control mice (UT; no dry eye treatment and no topical treatment); (2) EDE control mice received a balanced salt solution (BSS); (3) EDE mice received ADP 355 0.1% (single chain adiponectin peptidomimetic (ADP 355) in BSS); (4) EDE mice received Lifitegrast 5%; and (5) EDE mice received 0.1% peptide adiponectin peptidomimetic (ADP 355) in BSS+Lifitegrast 5%. […] Mice were evaluated at baseline, day 5 and day 10 after the treatment initiation.
Experiment 2—Corneal staining: The purpose of the corneal staining assay was to evaluate damage to the cornea epithelia in the murine EDE subject either as a consequence of inducing dry eye or due to treatment with 0.1% ADP 355 or with Lifitegrast 5% alone or with the combination of 0.1% ADP 355+Lifitegrast 5%. […] Corneal staining was assessed in four quadrants using a 4-point scale with 16 being the maximum score.
Briefly, fluorescein dye (1 μï) was instilled into the eye and then the eye was washed with saline. […] The average score from the five regions was recorded. […]

Molecule	tear production, as measured by tear volume, compared to untreated or BSS treated EDE mice [1]	difference in tear volume among those treated with ADP355, ADP399 and globular adiponectin [1]	corneal staining (corneal irregularity) compared to untreated EDE mice [2]	corneal surfaces compared to untreated normal mice (UT) and positive control gAdipo-treated mice [2]	corneal disruptions resulting from induced dry eye (corneal staining grade) vs untreated eyes (BSS) [3]
(DAsn-Ile-Pro-Nva-Leu-Tyr-DSer-Phe-Ala-DSer-His-Pro)2-Dab-NH2 ([dN]IP[Nva]LY[dS]FA[dS]HP[Dab′]-NH2; also: branched dimer: two chains joined via C-terminal Dab) [ADP399, linear branched dimer of ADP355]	higher	no significant difference	less corneal staining	similar	–
CS(=O)(=O)c1cccc(C[C@H](NC(=O)c2c(Cl)cc3c(c2Cl)CCN(C(=O)c2ccc4ccoc4c2)C3)C(=O)O)c1 [Lifitegrast, reference compound]	–	–	–	–	improved corneal disruptions
DAsn-Ile-Pro-Nva-Leu-Tyr-DSer-Phe-Ala-DSer-NH2 ([dN]IP[Nva]LY[dS]FA[dS]-NH2; N-terminus assumed; SMILES CCC[C@H](NC(=O)[C@@H]1CCCN1C(=O)[C@@H](NC(=O)[C@H](N)CC(N)=O)[C@@H](C)CC)C(=O)N[C@@H](CC(C)C)C(=O)N[C@@H](Cc1ccc(O)cc1)C(=O)N[C@H](CO)C(=O)N[C@@H](Cc1ccccc1)C(=O)N[C@@H](C)C(=O)N[C@H](CO)C(N)=O) [ADP355, single chain adiponectin peptidomimetic]	higher	no significant difference	less corneal staining	similar	improved corneal disruptions
